According to US20230233541A1, “SUBSTITUTED BENZAMIDES AS MODULATORS OF TREX1” (Constellation Pharmaceuticals, Inc., priority 2020, published 2023):

How the values were obtained:
full length human TREX1 = target: T1, full length human TREX1 (Homo sapiens, UniProt Q9NSU2); assay: TREX1 Biochemical Assay (fluorescence assay, degradation of dsDNA substrate); settings: 150 pM TREX1, 60 nM dsDNA substrate, 25 minutes at room temperature; read-out: hTREX1 EC50
T1 construct: N-terminally His-Tev tagged full length human TREX1; His-Tev (His tag with TEV protease site) (N); made in house; host or cells: E. coli
T1 sequence (Q9NSU2 1-314): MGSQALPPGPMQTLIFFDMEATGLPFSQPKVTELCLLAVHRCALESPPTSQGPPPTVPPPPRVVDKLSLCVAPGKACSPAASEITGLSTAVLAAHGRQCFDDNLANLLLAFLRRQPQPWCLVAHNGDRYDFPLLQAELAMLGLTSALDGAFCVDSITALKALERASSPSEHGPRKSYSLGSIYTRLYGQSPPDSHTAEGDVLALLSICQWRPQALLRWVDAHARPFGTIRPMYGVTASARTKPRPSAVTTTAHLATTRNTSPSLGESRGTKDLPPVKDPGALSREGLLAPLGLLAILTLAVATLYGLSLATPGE
Method in brief: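 E. coli-expressed His-Tev-tagged full-length TREX1 (150 pM) with 60 nM quenched-fluorophore dsDNA in Tris pH 7.4, 150 mM NaCl, 100 mM MgCl2, 1% DMSO, 25 min room temperature, 10-point dose-response. EDTA stop; fluorescence 615 nm (ex 570 nm); IC50 from four-parameter fit against pre-quenched and no-inhibitor controls.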

[1] = target: T2, human TREX2 (residues M44-A279) (Homo sapiens, UniProt Q9BQ50); assay: TREX2 Biochemical Assay (fluorescence assay, degradation of dsDNA substrate); settings: 2.5 nM TREX2, 60 nM dsDNA substrate, 25 minutes at room temperature; read-out: hTREX2 EC50
T2 construct: human TREX2 (residues M44-A279, expressed in E. coli); His-Tev (His tag with TEV protease site) (N); made in house; host or cells: E. coli
T2 sequence (Q9BQ50 44-279 isoform Q9BQ50-1): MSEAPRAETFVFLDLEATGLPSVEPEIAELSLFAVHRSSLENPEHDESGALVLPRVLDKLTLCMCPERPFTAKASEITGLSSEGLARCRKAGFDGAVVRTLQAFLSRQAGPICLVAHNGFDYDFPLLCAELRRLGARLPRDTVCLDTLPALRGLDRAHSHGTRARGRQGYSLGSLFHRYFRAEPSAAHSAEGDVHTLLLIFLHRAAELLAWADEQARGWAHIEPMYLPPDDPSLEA
Method in brief: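 His-Tev-tagged human TREX2 (M44-A279, E. coli-expressed) at 2.5 nM final, with 60 nM TEX615/quencher-labelled dsDNA in pH 7.4 Tris buffer with MgCl2 and 1.0% DMSO, 10-point dose-response, 25 min at room temperature, then EDTA quench. Fluorescence read at 615 nm (ex 570 nm). IC50 from four-parameter fit against pre-quenched and no-inhibitor controls.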

Compound | EC50 (full length human TREX1) [µM] | EC50 [1] [µM]
O=C(O)c1ccc(CN(Cc2ccc3ncccc3c2Cl)C(=O)c2cc(F)cc(F)c2)cn1 [Compound 191] | < 0.1 | 1 to 10
N#Cc1ccccc1CN(Cc1ccc(C(=O)O)nc1)C(=O)c1cc(F)cc(F)c1 [Compound 192] | > 10 | > 100
Cc1ccccc1CN(Cc1ccc(C(=O)O)nc1)C(=O)c1cc(F)cc(F)c1 [Compound 193] | 0.1 to 1 | 10 to 100
COc1cccc(CN(Cc2ccc(C(=O)O)nc2)C(=O)c2cc(F)cc(F)c2)c1C [Compound 195] | < 0.1 | 1 to 10
CC[C@H](c1cccc(OC)c1C(F)(F)F)N(Cc1ccc(C(=O)O)nc1)C(=O)c1cc(F)cc(F)c1 [Compound 196] | < 0.1 | < 1
CC[C@@H](c1cccc(OC)c1C(F)(F)F)N(Cc1ccc(C(=O)O)nc1)C(=O)c1cc(F)cc(F)c1 [Compound 197] | < 0.1 | 1 to 10
O=C(O)c1ccc(CN(Cc2cccc(Cl)c2C(F)(F)F)C(=O)c2cc(F)cc(F)c2)cn1 [Compound 198] | 0.1 to 1 | 10 to 100
O=C(O)c1ccc(CN(Cc2ccccc2OC(F)(F)F)C(=O)c2cc(F)cc(F)c2)cn1 [Compound 199] | 1 to 10 | 10 to 100
O=C(O)c1ccc(CN(Cc2sc(Cl)nc2Cl)C(=O)c2cc(F)cc(F)c2)cn1 [Compound 200] | 0.1 to 1 | 10 to 100
O=C(O)c1ccc(CN(Cc2ccnc(Cl)c2Cl)C(=O)c2cc(F)cc(F)c2)cn1 [Compound 201] | < 0.1 | 1 to 10
O=C(O)c1ccc(CN(Cc2cncc(Cl)c2Cl)C(=O)c2cc(F)cc(F)c2)cn1 [Compound 202] | < 0.1 | 1 to 10
O=C(O)c1ccc(CN(Cc2nccc(Cl)c2Cl)C(=O)c2cc(F)cc(F)c2)cn1 [Compound 203] | < 0.1 | 1 to 10
O=C(O)c1ncc(CN(Cc2cccc(Cl)c2Cl)C(=O)c2cc(F)cc(F)c2)cc1Cl [Compound 204] | 0.1 to 1 | 1 to 10
Cc1cc(C(=O)O)ncc1CN(Cc1cccc(Cl)c1Cl)C(=O)c1cc(F)cc(F)c1 [Compound 205] | < 0.1 | < 1
O=C(O)c1cc(CO)c(CN(Cc2cccc(Cl)c2Cl)C(=O)c2cc(F)cc(F)c2)cn1 [Compound 206] | < 0.1 | 10 to 100
O=C(O)c1ncc(CN(Cc2ccccc2Cl)C(=O)c2cc(F)cc(F)c2)cn1 [Compound 207] | 0.1 to 1 | 10 to 100
COc1cc(C(=O)O)ncc1CN(Cc1cccc(Cl)c1Cl)C(=O)c1cc(F)cc(F)c1 [Compound 208] | < 0.1 | < 1
CN(C)c1cc(C(=O)O)ncc1CN(Cc1cccc(Cl)c1Cl)C(=O)c1cc(F)cc(F)c1 [Compound 209] | < 0.1 | 10 to 100
COc1nc(C(=O)O)ccc1CN(Cc1cccc(Cl)c1Cl)C(=O)c1cc(F)cc(F)c1 [Compound 210] | 1 to 10 | 10 to 100
CC(C)(C)OC(=O)Nc1cncc(CN(Cc2cccc(Cl)c2Cl)C(=O)c2cc(F)cc(F)c2)c1 [Compound 212] | 0.1 to 1 | 1 to 10
COc1cccc(CN(Cc2ccc(NC(C)=O)nc2)C(=O)c2cccc(F)c2)c1Cl [Compound 213, N-((6-acetamidopyridin-3-yl)methyl)-N-(2-chloro-3-methoxybenzyl)-3-fluorobenzamide] | > 10 | > 100
CC(=O)Nc1ccc(CN(Cc2cccc(Cl)c2Cl)C(=O)c2cccc(F)c2)cn1 [Compound 214] | 1 to 10 | > 100
COC(=O)C[C@@H](c1ccc(Cl)cc1Cl)N(Cc1cccnc1)C(=O)c1cc(F)cc(F)c1 [Compound 215] | 1 to 10 | 10 to 100

Compound | EC50 (full length human TREX1) [µM] | EC50 [1] [µM]
COC(=O)C[C@H](c1ccc(Cl)cc1Cl)N(Cc1cccnc1)C(=O)c1cc(F)cc(F)c1 [Compound 216] | 1 to 10 | 10 to 100
NC(=O)Cc1ccc(CN(Cc2ccc(Cl)cc2Cl)C(=O)c2cc(F)cc(F)c2)cn1 [Compound 217] | 0.1 to 1 | > 100
O=C(c1cc(F)cc(F)c1)N(Cc1ccc(CCO)nc1)Cc1ccc(Cl)cc1Cl [Compound 218] | 0.1 to 1 | 10 to 100
Cc1cc(-c2ccc(CN(Cc3ccccc3Cl)C(=O)c3cc(F)cc(F)c3)cn2)[nH]n1 [Compound 219] | 1 to 10 | 10 to 100
O=C(c1cc(F)cc(F)c1)N(Cc1cccnc1)[C@H](c1cn[nH]c1)c1ccc(Cl)cc1Cl [Compound 220] | 0.1 to 1 | 10 to 100
O=C(c1cc(F)cc(F)c1)N(Cc1ccc(-c2cc(=O)[nH][nH]2)nc1)Cc1ccccc1Cl [Compound 221] | 0.1 to 1 | 10 to 100
O=C(c1cc(F)cc(F)c1)N(Cc1cccnc1)[C@@H](c1cn[nH]c1)c1ccc(Cl)cc1Cl [Compound 222] | 1 to 10 | 10 to 100
O=C(c1cc(F)cc(F)c1)N(Cc1ccc(-c2cc(C(F)(F)F)n[nH]2)nc1)Cc1ccccc1Cl [Compound 223] | > 10 | > 100
COc1cccc([C@H](C)N(Cc2ccc(-c3ccn[nH]3)nc2)C(=O)c2cc(F)cc(F)c2)c1Cl [Compound 224] | 1 to 10 | 10 to 100
COc1cccc([C@@H](C)N(Cc2ccc(-c3ccn[nH]3)nc2)C(=O)c2cc(F)cc(F)c2)c1Cl [Compound 225] | 0.1 to 1 | 10 to 100
CC[C@H](c1ccc(OC)c(OC)c1Cl)N(Cc1ccc(C(=O)O)nc1)C(=O)c1cc(F)cc(F)c1 [Compound 226] | < 0.1 | 1 to 10
CC[C@@H](c1ccc(OC)c(OC)c1Cl)N(Cc1ccc(C(=O)O)nc1)C(=O)c1cc(F)cc(F)c1 [Compound 227] | < 0.1 | 1 to 10
CCOc1cccc([C@@H](CC)N(Cc2ccc(C(=O)O)nc2)C(=O)c2cc(F)cc(F)c2)c1Cl [Compound 228] | < 0.1 | 1 to 10
CCOc1cccc([C@H](CC)N(Cc2ccc(C(=O)O)nc2)C(=O)c2cc(F)cc(F)c2)c1Cl [Compound 229] | < 0.1 | 1 to 10
CC[C@@H](c1ccc2c(c1Cl)OCO2)N(Cc1ccc(C(=O)O)nc1)C(=O)c1cc(F)cc(F)c1 [Compound 230] | < 0.1 | 1 to 10
CC[C@H](c1cccc(OC2COC2)c1Cl)N(Cc1ccc(C(=O)O)nc1)C(=O)c1cc(F)cc(F)c1 [Compound 231] | 0.1 to 1 | 1 to 10
CC[C@@H](c1cccc(OC2COC2)c1Cl)N(Cc1ccc(C(=O)O)nc1)C(=O)c1cc(F)cc(F)c1 [Compound 232] | < 0.1 | 10 to 100
CC[C@H](c1ccc2c(c1Cl)OCO2)N(Cc1ccc(C(=O)O)nc1)C(=O)c1cc(F)cc(F)c1 [Compound 233] | < 0.1 | 1 to 10
N#CC[C@@H](c1cccc(Cl)c1Cl)N(Cc1cccnc1)C(=O)c1cc(F)cc(F)c1 [Compound 234] | 1 to 10 | 10 to 100
N#CC[C@H](c1cccc(Cl)c1Cl)N(Cc1cccnc1)C(=O)c1cc(F)cc(F)c1 [Compound 235] | < 0.1 | 1 to 10
CC[C@@H](c1cccc(Cl)c1Cl)N(Cc1cnc(C(=O)O)c(N)c1)C(=O)c1cc(F)cc(F)c1 [Compound 236] | < 0.1 | < 1
NCC[C@@H](c1cccc(Cl)c1Cl)N(Cc1cccnc1)C(=O)c1cc(F)cc(F)c1 [Compound 237] | > 10 | 10 to 100
